Earlier results as cited in patent US5849733A, “2-thio or 2-oxo flavopiridol analogs” (Bristol-Myers Squibb Co., priority 1997, dated 1998).

System: apoptosis
Settings: J. Cell Sci., 108, 2897 (1995)

## Cn1cnc2c(NCc3ccccc3)nc(NCCO)nc21 [olomucine]
  synergy with known cytotoxic agents in inducing apoptosis: act synergistically with known cytotoxic agents in inducing apoptosis
